Test results from patent publication US20250326748A1, “COMPOUNDS AND METHODS FOR MODULATING SPLICING” (REMIX THERAPEUTICS INC., priority 2022, published 2025).
Like-named read-outs stand apart in the source and are kept apart here.

Assays:
K562 cells = test: Cell viability, Cell Titer Glo 2.0 assay, K562; details: 72 hours
HiBiT-tagged HTT protein = test: HiBiT protein abundance assay, HTT (K562 HiBiT knock-in); assay type: cell-based, human; details: HiBiT knock-in cells, 24 hours
Procedure: (§1) Compounds described herein were used to screen for effects on quantitative protein abundance using a HiBit assay system (Promega). Quantitative protein abundance was determined by measuring the protein levels of HiBit-tagged protein targets expressed in cell culture via luminescence using the Nano-Glo HiBiT Lytic Detection System, which uses a split complementation assay format to reconstitute NanoBiT enzyme to generate a luminescent signal. A protein abundance assay was developed such that endogenous protein targets could be modified with the HiBiT peptide tag and their abundance could be assessed after compound treatment. Briefly, K562 cell lines containing a HiBiT-modification were treated with various compounds described herein (e.g., compounds of Formulas (I), or (II)). After treatment for 24 hours, the protein abundance of a specific target was determined by measuring luminescence.
(§2) • Promega Nano-Glo HiBiT Lytic Detection System (cat #N3030) • Corning 384-well TC-treated microplates (cat #3570)
(§3) Cells were maintained in IMDM with 10% FBS. Before the assay, cells were diluted with […] growth media (IMDM+1% FBS media) and were seeded in a 384-well plate at a density of 10000 cells/well (for each cell line listed in Table 6). Each compound was prepared as a 10-point 3-old serial dilution in DMSO with the top dose at a final concentration of 10 μM in the well. Unmodified K562 cells were added at the previously specified density with DMSO to serve as an assay baseline and positive control (PC) and DMSO only with the respective modified cell lines was added to the negative control (NC) columns. Final DMSO concentration was kept at or below 0.25%. Treated cell plates were placed in an incubator at 37° C. with 5% CO2 for 24 hours. After 24 hours, 25 μL of Complete HiBit Lytic reagent was added to each well at room temperature (e.g. one plate requiring 10 ml Lytic Buffer, 100 μL LgBiT Protein, 200 μL Lytic Substrate), shaken for 5 minutes at 600 RPM, then left to sit for 10 minutes for signal to stabilize before reading on a Spark Cyto plate reader (Tecan) with a 500 ms measurement time.
(§4) To determine compound effects on protein abundance of each target in Table 6, the percent response for each respective cell line was calculated at each compound concentration as follows:
(§5) For the normalized response at each concentration, a four-parameter logistical regression was fit to the data and the response was interpolated at the 50% value to determine a concentration for protein abundance at 50% (IC50) the untreated control.

HiBiT-tagged MYB protein = test: HiBiT protein abundance assay, MYB (K562 HiBiT knock-in); assay type: cell-based, human; details: HiBiT knock-in cells, 24 hours
Procedure: as §1, §2, §3, §4, §5

Target C = test: HiBiT protein abundance assay, Target C (K562 HiBiT knock-in); assay type: cell-based, human; details: HiBiT knock-in cells, 24 hours
Procedure: as §3, §4, §5

SMN2 mRNA = test: Splicing RT-qPCR panel, SMN2 canonical junction (CJ) mRNA; assay type: cell-based, human; details: Homo sapiens, read-out: SMN2 CJ (decrease in CJ mRNA levels, IC50)
Procedure: Compounds described herein were used to modulate RNA transcript abundance in cells. The expression of a target mRNA was measured by detecting the formation of an exon-exon junction in the canonical transcript (CJ). A compound mediated exon-inclusion event was detected by observing an increase in formation of a new junction with an alternative exon (AJ). Real-time qPCR assays were used to detect these splicing switches and interrogate the potency of various compounds towards different target genes. A high-throughput real time quantitative PCR (RT-qPCR) assay was developed to measure these two isoforms of the mRNA (CJ and AJ) for exemplary genes, such as HTT, SMN2, and MYB, together with a control housekeeping gene, GAPDH or GUSB or PPIA, used for normalization. Briefly, the A673 or K562 cell line was treated with various compounds described herein (e.g., compounds of Formula (D). After treatment, the levels of the HTT, MYB, or SMN2 mRNA targets were determined from each sample of cell lysate by cDNA synthesis followed by qPCR.
The A673 cell line was cultured in DMEM with 10% FBS. Cells were diluted with full growth media and plated in a 96-well plate (15,000 cells in 100 ul media per well). The plate was incubated at 37° C. with 5% CO2 for 24 hours to allow cells to adhere. An 11-point 3-fold serial dilution of the compounds was made in DMSO then diluted in media in an intermediate plate. Compounds were transferred from the intermediate plate to the cell plate with the top dose at a final concentration of 10 uM in the well. Final DMSO concentration was kept at or below 0.25%. The cell plate was returned to the incubator at 37° C. with 5% CO2 for an additional 24 hours.
The K562 cell line was cultured in IMDM with 10% FBS. For K562, cells were diluted with full growth media and plated in either a 96-well plate (50,000 cells in 50 uL media per well) or a 384-well plate (8,000-40,000 cells in 45 uL media per well). An 11-point 3-fold serial dilution of the compounds were made in DMSO then diluted in media in an intermediate plate. Compound was transferred from the intermediate plate to the cell plate with the top dose at a final concentration of 10 uM in the well. Final DMSO concentration was kept at or below 0.25%. Final volume was 100 uL for 96-well plate and 50 uL for 384-well plate. The cell plate was then placed in an incubator at 37° C. with 5% CO2 for 24 hours.
The cells were then gently washed with 50 uL-100 uL cold PBS before proceeding to addition of lysis buffer. 30 uL-50 μL of room temperature lysis buffer with DNAse I (and optionally RNAsin) was added to each well. Cells were shaken/mixed thoroughly at room temperature for 5-10 minutes for lysis to take place and then 3 uL-5 μL of room temperature stop solution was added and wells were shaken/mixed again. After 2-5 minutes, the cell lysate plate was transferred to ice for RT-qPCR reaction setup. The lysates could also be frozen at −80° C. for later use.
In some cases, a direct lysis buffer was used. An appropriate volume of 3× lysis buffer (10 mM Tris, 150 mM NaCl, 1.5%-2.5% Igepal and 0.1-1 U/uL RNAsin, pH 7.4) was directly added to either K562 or A673 cells in media and mixed by pipetting 3 times. The plates were then incubated at room temperature with shaking/rocking for 20-50 minutes to allow for lysis to take place. After this time, the cell lysate plate was transferred to ice to set up for the RT-qPCR reactions. The lysates could also be frozen at −80° C. for later use.
To set up 10 uL RT-qPCR reactions, cell lysates were transferred to 384-well qPCR plates containing the master mix according to the table below. The plates were sealed, gently vortexed, and spun down before the run. The volumes were adjusted accordingly in some instances where the reaction was carried in 20 μL. The table below summarizes the components of the RT-qPCR reactions:
The RT-qPCR reaction was performed using a QuantStudio (ThermoFisher) under the following fast cycling conditions. […]

Target C mRNA = test: Splicing RT-qPCR panel, Target C canonical junction (CJ) mRNA; assay type: cell-based, human; details: Homo sapiens, read-out: Target C CJ (decrease in CJ mRNA levels, IC50)
Procedure, shortened: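 A673 cells (DMEM, 10% FBS) or K562 cells (IMDM, 10% FBS) treated 24 h at 37 °C with an 11-point 3-fold dilution, top 10 uM, DMSO ≤0.25%. Canonical-junction mRNA quantified in lysates by RT-qPCR, normalised to GAPDH, GUSB or PPIA and to DMSO (2^−ΔΔCt), then converted to % response.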

HTT mRNA = test: Splicing RT-qPCR assay, HTT canonical (CJ) and alternative (AJ) junction mRNA; assay type: cell-based, human; details: Homo sapiens; for IC50: canonical junction mRNA; for AC50: alternative junction mRNA, read-out: HTT AJ (AC50, increase in AJ mRNA)
Procedure, shortened: (§6)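 Read-out: one-step RT-qPCR on crude lysates measuring exon-exon junction isoforms, CJ for the canonical transcript and AJ for compound-induced exon inclusion. Normalization used PPIA for adherent A673 and GAPDH or GUSB for K562. Cells received 11 doses, 3-fold apart, top 10 uM, for 24 h.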

MYB mRNA = test: Splicing RT-qPCR assay, MYB canonical (CJ) and alternative (AJ) junction mRNA; assay type: cell-based, human; details: Homo sapiens; for IC50: canonical junction mRNA; for AC50: alternative junction mRNA, read-out: MYB AJ (AC50, increase in AJ mRNA)
Procedure, shortened: as §6

[1] = 24 h, RT-qPCR, A673 or K562 cells, 24 hours treatment, read-out: HTT CJ (IC50, decrease in CJ mRNA)
[2] = qPCR panel, read-out: HTT CJ (decrease in CJ mRNA levels, IC50)
[3] = RT-qPCR, A673 or K562 cells, 24 hours treatment
[4] = qPCR panel, read-out: MYB CJ (decrease in CJ mRNA levels, IC50)
[5] = RT-qPCR, A673 or K562 cells, 24 hours treatment, read-out: MYB CJ (IC50, decrease in CJ mRNA)

Structure (SMILES) | Effect on Cell Viability, K562 (K562 cells) | IC50 (HiBiT-tagged HTT protein) | IC50 (HiBiT-tagged MYB protein) | IC50 (Target C) | IC50 (SMN2 mRNA) | IC50 (Target C mRNA) | IC50 (HTT mRNA; [1]) | IC50 (HTT mRNA; [2]) | AC50 (HTT mRNA; [3]) | IC50 (MYB mRNA; [4]) | AC50 (MYB mRNA; [3]) | IC50 (MYB mRNA; [5])
CN[C@H]1CCN(c2cnc3nc(-c4cc5cn(C)nc5c(C)c4O)ccc3c2)C1 [Compound 111] | A (<100 nM) | < 100 nM | < 100 nM | < 100 nM | – | – | – | – | – | – | – | –
Cn1cc2cc(-c3cnc4cc(C5CCNCC5)ccc4n3)c(O)c(F)c2n1 [Compound 167, 7-fluoro-2-methyl-5-[6-(piperidin-4-yl)quinoxalin-2-yl]indazol-6-ol] | A (<100 nM) | < 100 nM | < 100 nM | < 100 nM | – | – | – | – | – | – | – | –
Cc1cn2nc(-c3cc(Cl)c4cc(N5C[C@H](C)NC6(CC6)C5)cnc4n3)cc(C)c2n1 [Compound 400] | C (1000-9999 nM) | – | – | – | < 100 nM | 1000 to 10000 nM | 1000 to 10000 nM | 1000 to 10000 nM | 1000 to 10000 nM | 100 to 1000 nM | 100 to 1000 nM | 100 to 1000 nM
Cc1cn2cc(-c3cc(Cl)c4cc(N5C[C@H](C)NC6(CC6)C5)cnc4n3)cc(F)c2n1 [Compound 401] | C (1000-9999 nM) | – | – | – | < 100 nM | 1000 to 10000 nM | 1000 to 10000 nM | 1000 to 10000 nM | 1000 to 10000 nM | 100 to 1000 nM | 100 to 1000 nM | 100 to 1000 nM
Cc1cn2cc(-c3cc(Cl)c4cc(N5C[C@@H](C)NC6(CC6)C5)cnc4n3)cc(F)c2n1 [Compound 402] | C (1000-9999 nM) | – | – | – | < 100 nM | > 10000 nM | > 10000 nM | > 10000 nM | > 10000 nM | 100 to 1000 nM | 100 to 1000 nM | 100 to 1000 nM
COc1nc(-c2cc(Cl)c3cc(N4C[C@H](C)N[C@@H](C)C4)cnc3n2)cn2cc(C)nc12 [Compound 403, 4-chloro-6-[(3S,5S)-3,5-dimethylpiperazin-1-yl]-2-{8-methoxy-2-methylimidazo[1,2-a]pyrazin-6-yl}-1,8-naphthyridine] | C (1000-9999 nM) | – | – | – | 100 to 1000 nM | > 10000 nM | > 10000 nM | > 10000 nM | > 10000 nM | 1000 to 10000 nM | 100 to 1000 nM | 1000 to 10000 nM
C[C@H]1CN(c2cnc3nc(-c4cc5cn(C)nc5cc4O)cc(Cl)c3c2)C[C@H](C)N1C [Compound 404, 5-{4-chloro-6-[(3S,5S)-3,4,5-trimethylpiperazin-1-yl]-1,8-naphthyridin-2-yl}-2-methylindazol-6-ol] | B (100-1000 nM) | – | – | – | < 100 nM | 1000 to 10000 nM | 1000 to 10000 nM | 1000 to 10000 nM | 1000 to 10000 nM | 100 to 1000 nM | 100 to 1000 nM | 100 to 1000 nM
